PubChem BioAssay (NCI)
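Following 48 hours of exposure in 96-well plates, responses at five concentrations were used to interpolate endpoints linearly. Definition used: TGI = concentration required for complete inhibition of growth.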

What was measured:
Assay in all cases: growth of human tumour cells (NCI), 48 h
CAKI-1 renal = system: CAKI-1 renal
NCI-H522 lung = system: NCI-H522 lung
SNB-75 CNS = system: SNB-75 CNS
HCT-116 colon = system: HCT-116 colon
UACC-257 melanoma = system: UACC-257 melanoma
MDA-MB-435 = system: MDA-MB-435
HOP-92 NSCLC = system: HOP-92 NSCLC
OVCAR-4 ovarian = system: OVCAR-4 ovarian
NCI-H460 lung = system: NCI-H460 lung
786-0 renal = system: 786-0 renal
ACHN renal = system: ACHN renal
SR leukemia = system: SR leukemia
SK-MEL-2 melanoma = system: SK-MEL-2 melanoma
CCRF-CEM leukemia = system: CCRF-CEM leukemia
HL-60(TB) leukemia = system: HL-60(TB) leukemia

| Structure (SMILES) | TGI (CAKI-1 renal) | TGI (NCI-H522 lung) | TGI (SNB-75 CNS) | TGI (HCT-116 colon) | TGI (UACC-257 melanoma) | TGI (MDA-MB-435) | TGI (HOP-92 NSCLC) | TGI (OVCAR-4 ovarian) | TGI (NCI-H460 lung) | TGI (786-0 renal) | TGI (ACHN renal) | TGI (SR leukemia) | TGI (SK-MEL-2 melanoma) | TGI (CCRF-CEM leukemia) | TGI (HL-60(TB) leukemia) |
| --- | --- | --- | --- | --- | --- | --- | --- | --- | --- | --- | --- | --- | --- | --- | --- |
| CCOP(=O)(OCC)/C(C#N)=C/c1cccn1C | > 100 µM | > 100 µM | > 100 µM | > 100 µM | > 100 µM | > 100 µM | > 100 µM | > 100 µM | > 100 µM | > 100 µM | > 100 µM | > 100 µM | > 100 µM | 89 µM | – |
| C=C(Cl)C(Cl)(CBr)CCCC(C)C (stereo unspecified) | 12.1 µM | > 100 µM | 41.5 µM | 24 µM | 32.2 µM | > 100 µM | 31.7 µM | > 100 µM | 30.2 µM | 26.4 µM | 26.2 µM | > 100 µM | – | > 100 µM | > 55.1 µM |
| CC1CCC2C(C(=O)O[C@H]3C4C=CO[C@@H](OC5OC(CO)C(O)C(O)C5O)C4[C@@]4(CO)O[C@@H]34)=CO[C@@H](OC3OC(CO)C(O)C(O)C3O)C12 (stereo partly specified) | > 10 µM | > 10 µM | > 10 µM | > 10 µM | > 10 µM | > 10 µM | > 10 µM | > 10 µM | > 10 µM | > 10 µM | > 10 µM | – | > 10 µM | > 10 µM | > 10 µM |
| CSCCCNC(=O)c1csc(-c2csc(CCNC(=O)CNC(=O)OC(C)(C)C)n2)n1 | > 100 µM | > 100 µM | > 100 µM | > 100 µM | > 100 µM | > 100 µM | > 100 µM | > 100 µM | > 100 µM | > 100 µM | > 100 µM | > 100 µM | > 100 µM | > 100 µM | – |
| CCOc1ccc(NC(=O)/C=C/c2ccco2)cc1 | > 100 µM | > 100 µM | > 100 µM | > 100 µM | > 100 µM | 22 µM | – | – | > 100 µM | > 100 µM | > 100 µM | > 100 µM | > 100 µM | > 100 µM | 44.5 µM |
| CCC(=O)NC(NNS(=O)(=O)c1ccc(C)cc1)(C(F)(F)F)C(F)(F)F | > 100 µM | 62.4 µM | > 100 µM | > 100 µM | > 100 µM | 48 µM | > 100 µM | – | > 100 µM | > 100 µM | > 100 µM | > 100 µM | > 100 µM | > 100 µM | > 100 µM |
| CN(C)Cc1cc(C(=O)/C=C/c2ccc(Cl)cc2Cl)cc(CN(C)C)c1O | 5.61 µM | 7.29 µM | 16.7 µM | 11.7 µM | 17.6 µM | 17.1 µM | 8.55 µM | 13.1 µM | 4.4 µM | 13.5 µM | 10.9 µM | > 100 µM | – | 8.88 µM | 8.67 µM |
| O=C1CSc2ccnc(=O)n21 | > 100 µM | > 100 µM | > 100 µM | > 100 µM | > 100 µM | > 100 µM | > 100 µM | > 100 µM | > 100 µM | > 100 µM | > 100 µM | > 100 µM | – | > 100 µM | > 100 µM |
